Results on 24 molecules are retold here after US9527832B2, “Substituted condensed pyrimidine compounds” (GRÜNENTHAL GMBH, priority 2013, dated 2016).

Broadly, the inhibition is the drop in the measured response relative to a control, in per cent. The term IC50 denotes the concentration that inhibits the measured activity by half. As usually defined, the Inhibition is the share of the control response that was lost under treatment.

Molecules are shown by their SMILES.

This assay deals with T1, human PDE4B1 (Homo sapiens, UniProt Q07343).
T1 construct: host or cells: Sf9 cells
In words: cAMP HTRF assay to determine the activity of hPDE4B1. In kind it is biochemical. Particulars: for IC50: dose response measurements with eight concentrations, reported as ranges, read-out: IC50. The method, then: cAMP HTRF® Assay to Determine the Activity of hPDE4B1
The inhibiting effect of the compounds on the enzyme activity of human PDE4B1 was measured by the quantification of 5′-adenosine monophosphate (5′-AMP), which is formed from 3′,5′-cyclic adenosine monophosphate (cAMP). Human recombinant enzyme, expressed in Sf9 cells, and the HTRF (homogeneous time-resolved fluorescence) detection method were used in the assay.
The test compound or water (control) was mixed with the human recombinant PDE4B1 enzyme (4.8 U) in a buffer consisting of 44.4 mM tris-HCl, 5.28 mM MgCl2, 2.64 mM DTT and 0.044% Tween 20 (pH 7.8). After adding the cAMP enzyme substrate (final concentration 40 nM), the mixture was incubated for 30 minutes at room temperature. Then a fluorescence acceptor (Dye2 marked with cAMP), a fluorescence donor (anti-cAMP antibody marked with a europium cryptate) and the non-specific phosphodiesterase inhibitor IBMX (3-isobutyl-1-methylxanthine; final concentration 1 mM) were added. After 60 minutes the fluorescence transfer, which correlates with the amount of remaining cAMP, was measured with a microplate reader (Rubystar, BMG) at λex=337 nm, λem=620 nm and λem=665 nm. The enzyme activity was calculated from the quotient formed from the measured signal at 665 nm and that at 620 nm. The result was expressed as the percentage inhibition of enzyme activity of the control (without PDE4 inhibitor). The enzyme was omitted for measurement of the basal control.
IC50 values (IC50=concentration causing a half-maximal inhibition of control specific activity) were derived from dose response measurements with eight different concentrations (n=2; N=1-2).
Literature: N. Saldou et al., Comparison of recombinant human PDE4 isoforms: interaction with substrate and inhibitors, Cell. Signal. Vol. 10, No. 6, 427-440, 1998

Setting [1] is: Percentage inhibition of PDE4B at 1 μM test concentration.

T1 sequence (Q07343 whole entry): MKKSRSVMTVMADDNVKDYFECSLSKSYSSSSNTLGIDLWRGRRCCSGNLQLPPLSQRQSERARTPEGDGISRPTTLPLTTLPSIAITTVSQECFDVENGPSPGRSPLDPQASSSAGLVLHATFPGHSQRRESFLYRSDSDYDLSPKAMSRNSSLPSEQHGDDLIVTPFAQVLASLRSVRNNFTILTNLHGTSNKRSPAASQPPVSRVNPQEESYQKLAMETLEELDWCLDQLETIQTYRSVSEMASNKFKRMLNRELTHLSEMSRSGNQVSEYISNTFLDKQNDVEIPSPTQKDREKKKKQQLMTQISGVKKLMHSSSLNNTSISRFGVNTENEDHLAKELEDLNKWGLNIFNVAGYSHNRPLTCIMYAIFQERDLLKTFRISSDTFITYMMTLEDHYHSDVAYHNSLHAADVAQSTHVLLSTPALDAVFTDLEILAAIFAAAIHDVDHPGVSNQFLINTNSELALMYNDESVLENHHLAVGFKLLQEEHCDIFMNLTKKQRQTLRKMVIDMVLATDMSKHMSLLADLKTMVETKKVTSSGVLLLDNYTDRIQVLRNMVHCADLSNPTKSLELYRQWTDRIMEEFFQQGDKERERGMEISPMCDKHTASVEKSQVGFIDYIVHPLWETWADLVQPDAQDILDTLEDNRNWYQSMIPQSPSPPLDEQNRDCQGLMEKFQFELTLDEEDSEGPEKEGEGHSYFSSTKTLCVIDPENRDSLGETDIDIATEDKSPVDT

In the case of `O=C(O)c1ccc2c(c1)ncn2-c1nc(-c2ccc(Cl)s2)nc2c1CCC2` (single isomer, unassigned) [Compound No. 1-63, 1-(2-(5-Chlorothiophen-2-yl)-6,7-dihydro-5H-cyclopenta[d]pyrimidin-4-yl)-1H-benzo[d]imidazole-5-carboxylic acid], the inhibition at 1 µM under setting [1] was 35%. On the same count and under the same terms, to `O=C(O)c1ccc2ncn(-c3nc(-c4ccc(Cl)s4)nc4c3CCC4)c2c1` (single isomer, unassigned) [Compound No. 1-74, 1-(2-(5-Chlorothiophen-2-yl)-6,7-dihydro-5H-cyclopenta[d]pyrimidin-4-yl)-1H-benzo[d]imidazole-6-carboxylic acid] belongs 31%. Turning to `CN(C)C(=O)COc1ccc2ncn(-c3nc(-c4ccc(Cl)s4)nc4c3C[S+]([O-])C4)c2c1` (single isomer, unassigned) [Compound No. 2-74, 2-((1-(2-(5-Chlorothiophen-2-yl)-6-oxido-5,7-dihydrothieno[3,4-d]pyrimidin-4-yl)-1H-benzo[d]imidazol-6-yl)oxy)-N,N-dimethylacetamide], the IC50 lay in the range of 100 to 1000 nM. Moreover, under setting [1], the inhibition at 1 µM was determined as 80%. Take `CN(C)C(=O)COc1ccc2c(c1)ncn2-c1nc(-c2ccc(Cl)s2)nc2c1C[S+]([O-])C2` (single isomer, unassigned) [Compound No. 2-75, 2-((1-(2-(5-Chlorothiophen-2-yl)-6-oxido-5,7-dihydrothieno[3,4-d]pyrimidin-4-yl)-1H-benzo[d]imidazol-5-yl)oxy)-N,N-dimethylacetamide]: the inhibition at 1 µM under setting [1] was determined as 39%. Consider `COc1ccc(-c2nc3c(c(N4CCc5ccc(OCC(=O)N(C)C)cc54)n2)C[S+]([O-])C3)cc1` (stereo not drawn) [2-18, 2-((1-(2-(4-Methoxyphenyl)-6-oxido-5,7-dihydrothieno[3,4-d]pyrimidin-4-yl)indolin-6-yl)oxy)-N,N-dimethylacetamide], for which the IC50 was less than 100 nM. Further, the inhibition at 1 µM under setting [1] came to 105%. As for `COc1ccc(-c2nc3c(c(N4CCc5ccc(OCC(=O)N(C)C)cc54)n2)C[S+]([O-])C3)cc1` (stereo not drawn) [2-20, 2-[[1-[2-(4-Methoxyphenyl)-6-oxo-5,7-dihydro-thieno[3,4-d]pyrimidin-4-yl]-2,3-dihydro-1H-indol-6-yl]oxy]-N,N-dimethyl-acetamide], the “Inhibition at 1 μM test concentration [%]” value (Percentage inhibition of PDE4B at 1 μM test concentration, 1 µM) was 98%. For the molecule `CN(C)C(=O)COc1ccc2c(c1)N(c1nc(-c3cccc(F)c3)nc3c1C[S+]([O-])C3)CC2` (stereo not drawn) [2-24, 2-[[1-[2-(3-Fluorophenyl)-6-oxo-5,7-dihydro-thieno[3,4-d]pyrimidin-4-yl]-2,3-dihydro-1H-indol-6-yl]oxy]-N,N-dimethyl-acetamide], the IC50 is less than 100 nM. Moreover, the inhibition at 1 µM under setting [1] turned out to be 115%. Consider `COc1ccc(-c2nc3c(c(N4CCc5ccc(OCC(=O)N(C)C)cc54)n2)CSC3)cc1Cl` [2-31], for which the half-inhibitory concentration (IC50) was less than 100 nM. In the case of `CN(C)C(=O)COc1ccc2c(c1)N(c1nc(-c3ccc(F)s3)nc3c1C[S+]([O-])C3)CC2` (stereo not drawn) [2-48, 2-((1-(2-(5-Fluorothiophen-2-yl)-6-oxido-5,7-dihydrothieno[3,4-d]pyrimidin-4-yl)indolin-6-yl)oxy)-N,N-dimethylacetamide], the IC50 is less than 100 nM. In addition, the inhibition at 1 µM under setting [1] was 94%. On to `O=C(COc1ccc2c(c1)N(c1nc(-c3ccc(Cl)s3)nc3c1CS(=O)(=O)C3)CC2)NCCO` [2-62, 2-((1-(2-(5-Chlorothiophen-2-yl)-6,6-dioxido-5,7-dihydrothieno[3,4-d]pyrimidin-4-yl)indolin-6-yl)oxy)-N-(2-hydroxyethyl)acetamide], for which the IC50 was less than 100 nM. Also, the inhibition at 1 µM under setting [1] worked out at 91%. For `CN(C)C(=O)COc1ccc2oc(=O)n(-c3nc(-c4ccc(Cl)s4)nc4c3C[S+]([O-])C4)c2c1` (stereo not drawn) [2-76, 2-((3-(2-(5-Chlorothiophen-2-yl)-6-oxido-5,7-dihydrothieno[3,4-d]pyrimidin-4-yl)-2-oxo-2,3-dihydrobenzo[d]oxazol-5-yl)oxy)-N,N-dimethylacetamide], the concentration for half-maximal inhibition (IC50) is 100 to 1000 nM. The inhibition at 1 µM under setting [1] is 62%. Take `CN(C)C(=O)COc1ccc2c(c1)N(c1nc(-c3ccc(C(N)=O)s3)nc3c1CCC3)CC2` [2-85, 5-(4-(6-(2-(Dimethylamino)-2-oxoethoxy)indolin-1-yl)-6,7-dihydro-5H-cyclopenta[d]pyrimidin-2-yl)thiophene-2-carboxamide]: the inhibition at 1 µM under setting [1] turned out to be 99%. For `Cc1ccc(-c2nc3c(c(N4CCc5ccc(OCC(=O)N(C)C)cc54)n2)C[S+]([O-])C3)cc1` (stereo not drawn) [2-87, N,N-Dimethyl-2-[[1-(6-oxo-2-p-tolyl-5,7-dihydro-thieno[3,4-d]pyrimidin-4-yl)-2,3-dihydro-1H-indol-6-yl]oxy]-acetamide], the IC50 was less than 100 nM. In addition, the inhibition at 1 µM under setting [1] worked out at 112%. In the case of `COc1ccccc1-c1nc2c(c(N3CCc4ccc(OCC(=O)N(C)C)cc43)n1)C[S+]([O-])C2` (stereo not drawn) [2-88, 2-[[1-[2-(2-Methoxyphenyl)-6-oxo-5,7-dihydro-thieno[3,4-d]pyrimidin-4-yl]-2,3-dihydro-1H-indol-6-yl]oxy]-N,N-dimethyl-acetamide], the IC50 fell in the range of 100 to 1000 nM. Under setting [1], the inhibition at 1 µM was 73%. With `CN(C)C(=O)COc1ccc2c(c1)N(c1nc(-c3cccc(Cl)c3)nc3c1C[S+]([O-])C3)CC2` (stereo not drawn) [2-89, 2-[[1-[2-(3-Chlorophenyl)-6-oxo-5,7-dihydro-thieno[3,4-d]pyrimidin-4-yl]-2,3-dihydro-1H-indol-6-yl]oxy]-N,N-dimethyl-acetamide], the IC50 is less than 100 nM. Besides, under setting [1], the inhibition at 1 µM turned out to be 119%.

Turning to `CN(C)C(=O)COc1ccc2c(c1)N(c1nc(-c3ccc(Cl)cc3)nc3c1C[S+]([O-])C3)CC2` (stereo not drawn) [2-90, 2-[[1-[2-(4-Chlorophenyl)-6-oxo-5,7-dihydro-thieno[3,4-d]pyrimidin-4-yl]-2,3-dihydro-1H-indol-6-yl]oxy]-N,N-dimethyl-acetamide], the 50% inhibitory concentration (IC50) is less than 100 nM. The inhibition at 1 µM under setting [1] came out at 117%.

For the molecule `COc1cccc(-c2nc3c(c(N4CCc5ccc(OCC(=O)N(C)C)cc54)n2)C[S+]([O-])C3)c1` (stereo not drawn) [2-91, 2-[[1-[2-(3-Methoxyphenyl)-6-oxo-5,7-dihydro-thieno[3,4-d]pyrimidin-4-yl]-2,3-dihydro-1H-indol-6-yl]oxy]-N,N-dimethyl-acetamide], the IC50 is less than 100 nM. Under setting [1], the inhibition at 1 µM stood at 117%.

As to `CN(C)C(=O)COc1ccc2c(c1)N(c1nc(-c3ccc(C#N)cc3)nc3c1C[S+]([O-])C3)CC2` (stereo not drawn) [2-92, 2-[[1-[2-(4-Cyano-phenyl)-6-oxo-5,7-dihydro-thieno[3,4-d]pyrimidin-4-yl]-2,3-dihydro-1H-indol-6-yl]oxy]-N,N-dimethyl-acetamide], the half-maximal inhibitory concentration (IC50) is less than 100 nM. Moreover, the inhibition at 1 µM under setting [1] was determined as 97%.

Take `CN(C)C(=O)COc1ccc2c(c1)N(c1nc(-c3ccccc3)nc3c1C[S+]([O-])C3)CC2` (stereo not drawn) [2-93, N,N-Dimethyl-2-[[1-(6-oxo-2-phenyl-5,7-dihydro-thieno[3,4-d]pyrimidin-4-yl)-2,3-dihydro-1H-indol-6-yl]oxy]-acetamide]: the IC50 was less than 100 nM. The inhibition at 1 µM under setting [1] is 121%. In the case of `Cc1ccccc1-c1nc2c(c(N3CCc4ccc(OCC(=O)N(C)C)cc43)n1)C[S+]([O-])C2` (stereo not drawn) [2-94, N,N-Dimethyl-2-[[1-(2-o-tolyl-6-oxo-5,7-dihydro-thieno[3,4-d]pyrimidin-4-yl)-2,3-dihydro-1H-indol-6-yl]oxy]-acetamide], the IC50 is 100 to 1000 nM. Also, under setting [1], the inhibition at 1 µM worked out at 91%. Take `Cc1cccc(-c2nc3c(c(N4CCc5ccc(OCC(=O)N(C)C)cc54)n2)C[S+]([O-])C3)c1` (stereo not drawn) [2-95, N,N-Dimethyl-2-[[1-(2-m-tolyl-6-oxo-5,7-dihydro-thieno[3,4-d]pyrimidin-4-yl)-2,3-dihydro-1H-indol-6-yl]oxy]-acetamide]: the IC50 was less than 100 nM. Under setting [1], the inhibition at 1 µM worked out at 113%. Take `CN(C)C(=O)COc1ccc2c(c1)N(c1nc(-c3ccccc3Cl)nc3c1C[S+]([O-])C3)CC2` (stereo not drawn) [2-96, 2-[[1-[2-(2-Chlorophenyl)-6-oxo-5,7-dihydro-thieno[3,4-d]pyrimidin-4-yl]-2,3-dihydro-1H-indol-6-yl]oxy]-N,N-dimethyl-acetamide]: the IC50 was less than 100 nM. Besides, the inhibition at 1 µM under setting [1] worked out at 107%.

Take `CN(C)C(=O)COc1ccc2c(c1)N(c1nc(-c3ccccc3C(F)(F)F)nc3c1C[S+]([O-])C3)CC2` (stereo not drawn) [2-97, N,N-Dimethyl-2-[[1-[6-oxo-2-[2-(trifluoromethyl)-phenyl]-5,7-dihydro-thieno[3,4-d]pyrimidin-4-yl]-2,3-dihydro-1H-indol-6-yl]oxy]-acetamide]: the IC50 lay in the range of 100 to 1000 nM. Besides, the inhibition at 1 µM under setting [1] stood at 93%. With `CN(C)C(=O)COc1ccc2c(c1)N(c1nc(-c3cccc(C#N)c3)nc3c1C[S+]([O-])C3)CC2` (stereo not drawn) [2-98, 2-[[1-[2-(3-Cyano-phenyl)-6-oxo-5,7-dihydro-thieno[3,4-d]pyrimidin-4-yl]-2,3-dihydro-1H-indol-6-yl]oxy]-N,N-dimethyl-acetamide], the half-maximal inhibitory concentration (IC50) is less than 100 nM. Further, the inhibition at 1 µM under setting [1] came out at 98%.
